# Laboratory results taken from ChEMBL document CHEMBL1201862, “PubChem BioAssay data set” (2004).
# Activity calls are given as the source filed them.
# Key:
# [1] = HEp-2 cell cytotoxicity, dose response, cytotoxicity control for RSV inhibitor project, HTS (AID 2410); format: functional; conditions: human respiratory syncytial virus
# Large T antigen = Large T antigen (Simian virus 40, UniProt P03070); format: functional, Betapolyomavirus macacae;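 further: Confirmatory-stage PubChem screen for compounds that inhibit SV40 T antigen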
# [2] = target: T1, RNA-binding protein pos-1 (Caenorhabditis elegans, UniProt G5EF15); assay: inhibitors of POS-1/mex-3 RNA binding, dose response, biochemical, fluorescence polarization (AID 1964);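 further: purified POS-1 fused to maltose binding protein made in E. coli; potency of compounds blocking POS-1 binding to fluorescent RNA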
# T1 sequence (G5EF15 whole entry): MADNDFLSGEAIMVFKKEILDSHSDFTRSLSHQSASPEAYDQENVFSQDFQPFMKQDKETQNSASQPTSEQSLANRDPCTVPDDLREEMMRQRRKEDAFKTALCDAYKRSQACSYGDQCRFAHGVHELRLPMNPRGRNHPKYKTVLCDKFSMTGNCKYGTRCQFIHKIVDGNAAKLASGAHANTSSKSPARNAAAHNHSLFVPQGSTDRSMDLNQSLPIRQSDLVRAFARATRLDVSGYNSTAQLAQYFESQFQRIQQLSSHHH
# [3] = system: Streptococcus sp. 'group A'; assay: growth inhibition of control SK(-) GAS strain, dose response, counter-screen for streptokinase expression inhibitor project, luminescence, kanamycin, BacTiterGlo, confirmation (AID 1900); format: functional, organism-based
# [4] = target: T2, Zinc finger protein mex-5 (Caenorhabditis elegans, UniProt Q9XUB2); assay: MEX-5/TCR-2 RNA interaction inhibitors, dose response, biochemical, C. elegans, fluorescence polarization (AID 1960)
# T2 sequence (Q9XUB2 whole entry): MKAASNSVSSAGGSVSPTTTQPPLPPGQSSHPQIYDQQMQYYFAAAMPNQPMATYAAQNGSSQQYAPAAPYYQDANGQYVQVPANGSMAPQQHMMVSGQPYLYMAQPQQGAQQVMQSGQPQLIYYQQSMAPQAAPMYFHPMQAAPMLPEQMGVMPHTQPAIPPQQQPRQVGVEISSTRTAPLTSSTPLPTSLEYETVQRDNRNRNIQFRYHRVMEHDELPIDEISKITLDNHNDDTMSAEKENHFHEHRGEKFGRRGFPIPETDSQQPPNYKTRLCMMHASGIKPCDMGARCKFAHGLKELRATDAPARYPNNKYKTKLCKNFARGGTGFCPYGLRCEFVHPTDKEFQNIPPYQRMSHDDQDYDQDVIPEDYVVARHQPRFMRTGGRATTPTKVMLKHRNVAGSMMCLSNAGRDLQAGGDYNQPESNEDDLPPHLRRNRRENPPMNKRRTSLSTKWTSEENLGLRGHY
# Streptokinase A = target: T3, Streptokinase A (Streptococcus pyogenes serotype M1, UniProt P10520); assay: S. pyogenes streptokinase expression inhibitors, potency, dose response, plasminogen activation absorbance, OD405 (AID 1914); format: functional, Streptococcus pyogenes M1 GAS;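 further: secreted streptokinase activity via plasminogen activation per viability signal from cell pellet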
# T3 sequence (P10520 whole entry): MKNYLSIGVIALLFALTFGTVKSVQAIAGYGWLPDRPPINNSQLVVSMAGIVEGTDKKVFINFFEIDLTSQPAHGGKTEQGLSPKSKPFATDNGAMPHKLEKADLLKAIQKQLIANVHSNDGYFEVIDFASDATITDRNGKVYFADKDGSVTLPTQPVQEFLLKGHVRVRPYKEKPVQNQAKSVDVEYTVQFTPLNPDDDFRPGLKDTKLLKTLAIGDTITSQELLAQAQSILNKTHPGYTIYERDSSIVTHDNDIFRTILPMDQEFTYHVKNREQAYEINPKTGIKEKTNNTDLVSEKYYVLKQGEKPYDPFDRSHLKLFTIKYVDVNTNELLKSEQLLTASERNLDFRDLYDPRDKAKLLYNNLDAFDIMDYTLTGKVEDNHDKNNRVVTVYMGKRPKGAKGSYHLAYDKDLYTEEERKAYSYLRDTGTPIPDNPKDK
# Streptococcus = assay: Group A Streptococcus viability loss, dose response, counter-screen for streptokinase expression inhibitor project, luminescence, BacTiterGlo (AID 1915); format: functional, organism-based;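 further: potency for reduction of bacterial viability or growth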
# [5] = target: FAD-linked sulfhydryl oxidase ALR (Homo sapiens, UniProt P55789); assay: inhibitors of human ALR sulfhydryl oxidase, dose response, biochemical, H2O2 detection, luminescence, cherry-pick (AID 493248)
# [6] = target: T4, Carboxy-terminal domain RNA polymerase II polypeptide A small phosphatase 1 (Homo sapiens, UniProt Q9GZU7); assay: inhibitors of CTDSP1, concentration-response testing, biochemical assay, absorbance-based, actives from ultra-high-throughput screening (AID 540297); format: functional
# T4 sequence (Q9GZU7 whole entry): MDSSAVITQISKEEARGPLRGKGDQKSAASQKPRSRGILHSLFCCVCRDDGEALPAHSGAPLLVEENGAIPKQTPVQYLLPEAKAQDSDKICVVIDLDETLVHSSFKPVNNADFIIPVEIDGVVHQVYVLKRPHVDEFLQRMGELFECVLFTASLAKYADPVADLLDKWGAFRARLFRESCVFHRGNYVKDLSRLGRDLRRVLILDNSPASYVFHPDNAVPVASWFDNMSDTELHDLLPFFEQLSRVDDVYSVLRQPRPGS
# [7] = target: T5, Histone-lysine N-methyltransferase NSD2 (Homo sapiens, UniProt O96028); format: biochemical
# T5 sequence (O96028 whole entry): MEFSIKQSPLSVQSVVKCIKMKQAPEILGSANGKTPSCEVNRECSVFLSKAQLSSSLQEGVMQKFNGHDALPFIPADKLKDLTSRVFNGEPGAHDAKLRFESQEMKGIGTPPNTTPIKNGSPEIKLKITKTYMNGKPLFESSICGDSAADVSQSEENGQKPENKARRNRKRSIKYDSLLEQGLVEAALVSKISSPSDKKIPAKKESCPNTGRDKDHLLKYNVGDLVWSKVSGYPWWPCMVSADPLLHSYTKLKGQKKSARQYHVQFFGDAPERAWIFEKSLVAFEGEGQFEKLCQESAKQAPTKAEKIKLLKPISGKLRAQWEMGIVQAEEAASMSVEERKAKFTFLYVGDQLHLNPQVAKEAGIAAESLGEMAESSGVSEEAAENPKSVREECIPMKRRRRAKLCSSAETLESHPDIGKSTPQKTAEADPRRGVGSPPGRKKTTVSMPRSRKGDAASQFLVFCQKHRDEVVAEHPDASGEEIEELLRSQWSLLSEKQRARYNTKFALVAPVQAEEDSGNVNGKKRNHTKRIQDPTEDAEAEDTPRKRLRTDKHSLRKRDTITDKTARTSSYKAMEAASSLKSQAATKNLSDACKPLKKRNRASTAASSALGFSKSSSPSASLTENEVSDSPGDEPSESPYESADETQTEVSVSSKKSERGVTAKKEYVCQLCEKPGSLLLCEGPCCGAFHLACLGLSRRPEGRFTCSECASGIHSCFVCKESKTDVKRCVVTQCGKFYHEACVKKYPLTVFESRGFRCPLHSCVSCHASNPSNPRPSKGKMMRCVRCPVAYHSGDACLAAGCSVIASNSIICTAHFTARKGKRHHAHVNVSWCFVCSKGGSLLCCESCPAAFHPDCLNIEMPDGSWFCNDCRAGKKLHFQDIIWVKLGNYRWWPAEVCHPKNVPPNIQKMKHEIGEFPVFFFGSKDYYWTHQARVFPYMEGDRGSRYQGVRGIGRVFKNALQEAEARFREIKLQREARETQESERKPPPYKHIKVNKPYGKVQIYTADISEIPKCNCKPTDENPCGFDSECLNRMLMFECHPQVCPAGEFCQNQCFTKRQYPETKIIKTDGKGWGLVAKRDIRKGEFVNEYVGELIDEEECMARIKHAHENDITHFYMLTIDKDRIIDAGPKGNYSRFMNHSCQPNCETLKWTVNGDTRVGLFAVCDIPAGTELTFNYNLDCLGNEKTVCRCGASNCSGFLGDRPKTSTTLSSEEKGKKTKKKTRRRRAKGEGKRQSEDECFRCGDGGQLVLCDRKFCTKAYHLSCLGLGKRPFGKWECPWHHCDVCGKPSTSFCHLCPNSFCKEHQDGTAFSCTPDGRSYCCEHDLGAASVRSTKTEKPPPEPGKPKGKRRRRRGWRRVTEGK
# HEK293 = assay: inhibitors of LMP1-driven NF-kB reporter, dose response, cell-based, HEK293, luciferase, cherry-pick (AID 588343); format: functional; conditions: Homo sapiens
# [8] = Shn3 3'UTR reporter inhibitors, dose response, cell-based, Clone20 osteoblasts, firefly luciferase, cherry-picked (AID 624132); format: functional;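 further: firefly luciferase luminescence from reporter carrying the Shn3 3'UTR in osteoblasts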
# [9] = HepG2 cell cytotoxicity, dose response, cytotoxicity control for Shn3 inhibitor project, CellTiter-Glo, cherry-picked (AID 624134); format: functional, cell-based
# [10] = control 3'UTR Renilla luciferase suppression, dose response, counter-screen for Shn3 inhibitor project, cell-based, Clone20-Shn3RL, cherry-picked (AID 624133); format: functional
# Cytochrome P450 3A4 = Cytochrome P450 3A4 (Homo sapiens, UniProt P08684);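 further: CYP3A4 tested as one member of a cytochrome P450 panel screen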
# [11] = NIH-3T3 fibroblast cytotoxicity, dose response, cytotoxicity control, cell-based, fluorescence, Alamar Blue, secondary assay (AID 2327); format: functional;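 further: NIH-3T3 mouse fibroblasts cultured with fluconazole at 8 µg/mL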
# [12] = C. albicans growth with fluconazole, confirmation, fluorescence, retest (AID 2467); format: functional, cell-based
# [13] = inhibitors of intracellular T. cruzi replication, confirmation, NIH3T3 host cells, beta-gal luminescence (AID 2044); format: functional, cell-based;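 further: intracellular parasites grown in NIH/3T3 mouse fibroblasts as host cells; luminescent beta-galactosidase reporter signal from transgenic T. cruzi replicating inside host cells; inhibitors lower the luminescence signal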
# [14] = cytotoxicity toward NIH3T3 fibroblasts, dose response, counter-screen, cell-based, ATP luminescence, mouse fibroblasts (AID 2010); format: functional;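 further: cells exposed to compound for about 90 hours before reading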
# [15] = Luminescence Cell-Based Dose Confirmation HTS to Identify Activators of 5'UTR Stem-Loop Driven Alpha-Synuclein mRNA Translation in H4 Neuroglioblastoma Cells. [Related pubchem assays: 1829 (Project Summary), 1814 (Primary HTS)]; format: functional
# H4 = assay: Luminescence Cell-Based Dose Response HTS to Identify Activators of 5'UTR Stem-Loop Driven Prion Protein mRNA Translation in H4 Neuroglioblastoma Cells. [Related pubchem assays: 1829 (Project Summary), 1814 (Primary HTS)]; format: functional; conditions: Homo sapiens
# [16] = microbe, parasite or virus in culture; format: functional; conditions: Mycobacterium tuberculosis
# Sequence of Large T antigen (P03070 whole entry, the tested form may be a part): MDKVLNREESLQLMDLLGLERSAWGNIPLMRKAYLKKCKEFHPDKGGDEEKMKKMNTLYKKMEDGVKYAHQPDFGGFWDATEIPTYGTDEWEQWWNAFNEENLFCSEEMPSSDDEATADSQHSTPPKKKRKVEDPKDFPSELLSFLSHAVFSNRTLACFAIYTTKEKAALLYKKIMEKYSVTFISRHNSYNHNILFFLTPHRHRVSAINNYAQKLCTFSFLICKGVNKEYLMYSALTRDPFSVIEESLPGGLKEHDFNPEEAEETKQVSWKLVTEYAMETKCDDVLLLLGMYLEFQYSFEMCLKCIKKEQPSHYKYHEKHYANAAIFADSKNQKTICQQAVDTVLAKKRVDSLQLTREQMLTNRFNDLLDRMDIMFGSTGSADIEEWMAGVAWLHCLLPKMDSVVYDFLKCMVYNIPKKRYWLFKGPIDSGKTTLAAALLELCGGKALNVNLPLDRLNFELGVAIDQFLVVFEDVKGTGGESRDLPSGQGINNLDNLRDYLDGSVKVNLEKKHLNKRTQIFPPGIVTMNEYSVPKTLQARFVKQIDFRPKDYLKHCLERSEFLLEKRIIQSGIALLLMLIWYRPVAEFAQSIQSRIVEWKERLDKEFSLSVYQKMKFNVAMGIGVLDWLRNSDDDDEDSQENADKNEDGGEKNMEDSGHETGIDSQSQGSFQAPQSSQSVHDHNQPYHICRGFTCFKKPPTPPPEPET
# Sequence of Cytochrome P450 3A4 (P08684 whole entry): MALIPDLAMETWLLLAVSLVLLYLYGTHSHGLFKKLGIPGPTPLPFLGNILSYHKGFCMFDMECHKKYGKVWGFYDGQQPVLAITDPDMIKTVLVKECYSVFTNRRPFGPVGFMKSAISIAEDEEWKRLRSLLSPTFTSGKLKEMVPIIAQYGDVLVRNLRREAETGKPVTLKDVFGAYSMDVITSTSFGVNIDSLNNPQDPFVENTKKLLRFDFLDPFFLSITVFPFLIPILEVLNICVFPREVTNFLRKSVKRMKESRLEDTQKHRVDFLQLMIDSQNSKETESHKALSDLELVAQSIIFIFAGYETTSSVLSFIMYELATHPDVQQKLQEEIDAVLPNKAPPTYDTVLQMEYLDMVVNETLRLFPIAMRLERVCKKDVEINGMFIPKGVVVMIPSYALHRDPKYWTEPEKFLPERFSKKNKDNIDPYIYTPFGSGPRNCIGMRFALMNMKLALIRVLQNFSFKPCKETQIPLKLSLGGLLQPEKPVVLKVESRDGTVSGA
# Sequence of FAD-linked sulfhydryl oxidase ALR (P55789 whole entry, the tested form may be a part): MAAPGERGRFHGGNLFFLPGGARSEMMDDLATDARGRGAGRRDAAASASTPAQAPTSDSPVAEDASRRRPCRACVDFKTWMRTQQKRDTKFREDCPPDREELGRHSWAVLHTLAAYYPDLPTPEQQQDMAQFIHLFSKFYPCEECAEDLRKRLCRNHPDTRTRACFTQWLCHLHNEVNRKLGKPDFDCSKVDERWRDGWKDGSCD
compound,measurement,setting,value
CCOC(=O)c1[nH]nc(-c2cc(CC)c(O)cc2O)c1-c1cscn1,CC50,[1],22.6 µM (active)
same,IC50,Large T antigen,20.6 µM (active)
N#Cc1ccccc1CN1C(=O)S/C(=C/c2cccn2-c2ccc(C(=O)O)cc2)C1=O,EC50,[2],> 300 µM (not active)
same,EC50,[3],15.8 µM (active)
same,EC50,[4],44 µM (active)
same,EC50,Streptokinase A,> 150 µM (not active)
same,EC50,Streptococcus,61.7 µM (active)
same,AC50,[5],86.3 µM (active)
same,IC50,[6],5.85 µM (active)
NC(=O)C1CCN(C2=C(NS(=O)(=O)c3ccc(Cl)cc3)C(=O)c3ccccc3C2=O)CC1,AC50,[7],14.1 µM (active)
Cc1nc2sc(C(N)=O)c(N)c2c2c1CCCC2,AC50,HEK293,10.9 µM (active)
N=C1/C(=C\c2ccc(Br)o2)C(=O)N=C2SC(CC(=O)N3CCOCC3)=NN12,IC50,[6],18.3 µM (active)
same,AC50,[7],> 20 µM (inactive)
CCOc1ccccc1N=C(S)N1CCN(c2ccc(O)cc2)CC1,IC50,Large T antigen,6.28 µM (active)
O=S(=O)(c1ccccc1)N1CCN(c2cc(-c3ccccc3)nc3ncnn23)CC1,AC50,HEK293,3.23 µM (active)
same,AC50,[8],1.12 µM (active)
same,AC50,[9],48.1 µM (active)
same,AC50,[10],5.98 µM (active)
same,AC50,Cytochrome P450 3A4,14.1 µM (inconclusive)
CCC[n+]1c2ccccc2cc2ccccc21,EC50,[11],> 160 µM (inactive)
same,EC50,[12],0.672 µM (active)
same,IC50,Large T antigen,46.2 µM (active)
same,EC50,[13],0.157 µM (active)
same,EC50,[14],> 60 µM (not active)
CC(C)(C)C1CCc2c(sc3nc(SCC(N)=O)nc(N)c23)C1 (configuration not stated),EC50,[15],27.3 µM (active)
same,EC50,H4,24.9 µM (active)
same,CC50,[16],> 40 µM (active)
